# Values of other authors, collected in patent US20130337054A1, “TREATMENT OF EXCESSIVE MENSTRUAL BLOOD LOSS BY INTRAVAGINAL ADMINISTRATION OF LOW DOSES OF ANTIFIBRINOLYTIC OR HEMOSTATIC AGENT” (ARSTAT Inc., priority 2011, published 2013).
# Assays:
# [1] = tested on: menorrhagia (menstrual blood loss); settings: oral; cited from earlier work
# [2] = tested on: postoperative bleeding complications; settings: mouthwash, compared to placebo; cited from earlier work
# [3] = cited from earlier work
# menorrhagia = settings: oral, cited from earlier work
# postoperative blood loss = settings: cited from earlier work
compound,measurement,setting,value
NC[C@H]1CC[C@H](C(=O)O)CC1 [tranexamic acid],"difference versus placebo in reduction of large stains, small and large clots and changes in serum ferritin levels",[1],no statistically significant differences
same,incidence of postoperative bleeding complications,[2],reduce the incidence
same,plasma concentration,[3]; after a mouth rinse,below 2 mcg/mL
same,"saliva concentration, maximum level",[3]; after a mouth rinse,above 200 mcg/mL
same,time saliva concentration remained at a therapeutic level,[3]; after a mouth rinse,more than two
same,drug in saliva samples,[3]; after an oral tablet,not detected
same,mean drug plasma concentration,[3]; after an oral tablet,7000 ng/mL
same,risk of gastrointestinal adverse events,menorrhagia; 6 g/day,increased
same,efficacy in relation to dose,menorrhagia; EMEA 2000,dose-dependent increase in efficacy
aprotinin,plasma drug levels,postoperative blood loss; in vivo,without detectable plasma drug levels
same,postoperative blood loss,postoperative blood loss; locally administered,Reduction
